Experimental data published in patent publication US8410144B2, “Substituted indolo-pyridinone compounds” (ArQule, Inc., priority 2009, dated 2013).

Tests used:
IGF-1R = IGF-1R (Homo sapiens, UniProt P08069); experiment: IGFR1 activity assay (ELISA); type: biochemical; conditions: read-out: IGF-1R, PCT INH (30 μM), ELISA
Outline: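 IGF1R (0.33 ng/μL final) phosphorylating Pyk-2 (0.05 ng/μL final) in buffer with 12.5 μM ATP, 10 mM MgCl2, 1 h room temperature. Product captured on streptavidin plates, detected with anti-phosphotyrosine and alkaline phosphatase secondary antibody, Attophos fluorescent readout.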

KATO III = experiment: MTS assay, KATO III cells; type: cell-based; conditions: Homo sapiens, 72 hours, read-out: KATO III, MTS cell kill % inhibition
Outline: (§1)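 First, seed 3000 cells per well in low-serum (1% FBS) DMEM and culture 18 h. Next, add compounds prepared at 300× in DMSO and diluted 1:40 in DMEM; incubate 72 h. Finally, add MTS/PMS for 4 h and measure absorbance at 492 nm.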

DLD-1 = experiment: MTS assay, DLD-1 cells; type: cell-based; conditions: Homo sapiens, 72 hours, read-out: DLD-1, MTS cell kill % inhibition
Outline: as §1

MDA-MB-231 = experiment: MTS assay, MDA-MB-231 cells; type: cell-based; conditions: Homo sapiens, 72 hours, read-out: MDA-MB-231, MTS cell kill % inhibition
Outline: as §1

NCI-H1299 = experiment: MTS assay, NCI-H1299 cells; type: cell-based; conditions: Homo sapiens, 72 hours, read-out: NCI-H1299, MTS cell kill % inhibition
Outline: as §1

Chain of IGF-1R (P08069 31-1367): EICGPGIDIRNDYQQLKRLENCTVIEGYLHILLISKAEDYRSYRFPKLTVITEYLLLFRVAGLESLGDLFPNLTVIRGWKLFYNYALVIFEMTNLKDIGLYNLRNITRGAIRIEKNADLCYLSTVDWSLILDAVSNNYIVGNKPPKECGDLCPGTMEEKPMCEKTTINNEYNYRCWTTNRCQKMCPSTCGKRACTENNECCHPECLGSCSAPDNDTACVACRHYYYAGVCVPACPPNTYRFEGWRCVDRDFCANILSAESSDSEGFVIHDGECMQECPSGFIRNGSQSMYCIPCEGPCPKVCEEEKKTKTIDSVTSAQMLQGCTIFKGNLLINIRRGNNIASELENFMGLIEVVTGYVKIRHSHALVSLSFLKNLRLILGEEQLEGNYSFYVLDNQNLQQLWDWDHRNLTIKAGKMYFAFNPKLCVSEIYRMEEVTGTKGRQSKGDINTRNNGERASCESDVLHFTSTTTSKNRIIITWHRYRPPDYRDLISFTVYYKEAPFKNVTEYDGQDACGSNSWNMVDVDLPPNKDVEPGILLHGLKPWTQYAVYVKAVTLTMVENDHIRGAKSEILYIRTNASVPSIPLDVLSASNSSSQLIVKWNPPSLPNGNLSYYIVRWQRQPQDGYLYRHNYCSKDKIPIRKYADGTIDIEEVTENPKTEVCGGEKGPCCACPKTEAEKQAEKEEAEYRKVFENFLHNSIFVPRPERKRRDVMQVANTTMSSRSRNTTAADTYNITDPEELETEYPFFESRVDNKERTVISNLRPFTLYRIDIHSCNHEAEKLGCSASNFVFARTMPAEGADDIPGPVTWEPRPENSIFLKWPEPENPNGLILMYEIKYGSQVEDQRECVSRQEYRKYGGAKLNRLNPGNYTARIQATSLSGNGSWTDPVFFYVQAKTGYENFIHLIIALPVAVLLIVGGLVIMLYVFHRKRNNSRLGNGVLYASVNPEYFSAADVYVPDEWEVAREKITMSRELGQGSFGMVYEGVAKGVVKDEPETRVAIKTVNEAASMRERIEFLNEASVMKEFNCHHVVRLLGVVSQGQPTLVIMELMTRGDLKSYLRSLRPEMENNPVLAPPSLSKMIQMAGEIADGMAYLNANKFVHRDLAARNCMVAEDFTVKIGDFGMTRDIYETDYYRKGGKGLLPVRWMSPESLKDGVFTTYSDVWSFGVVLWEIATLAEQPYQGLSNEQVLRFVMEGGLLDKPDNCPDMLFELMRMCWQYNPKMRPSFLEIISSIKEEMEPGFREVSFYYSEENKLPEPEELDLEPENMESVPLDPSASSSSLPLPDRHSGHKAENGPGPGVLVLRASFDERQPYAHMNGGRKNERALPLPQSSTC

## CN(CCc1ccccc1)C(=O)c1ccc2[nH]c(-c3ccc[nH]c3=O)c(-c3ccc(-c4ccccc4)cc3)c2c1 [Compound 43, 3-biphenyl-4-yl-N-methyl-2-(2-oxo-1,2-dihydropyridin-3-yl)-N-(2-phenylethyl)-1H-indole-5-carboxamide]
IGF-1R
  inhibition at 30 µM: < 50%
other
  melting point: 136 to 141 °C
KATO III
  inhibition at 10 µM: 50 to 79%
DLD-1
  inhibition at 10 µM: 50 to 79%
MDA-MB-231
  inhibition at 10 µM: < 50%
NCI-H1299
  inhibition at 10 µM: 50 to 79%

## O=C(NCCCN1CCOCC1)c1ccc2[nH]c(-c3ccc[nH]c3=O)c(Br)c2c1 [Compound 56, 3-bromo-N-(3-morpholin-4-ylpropyl)-2-(2-oxo-1,2-dihydropyridin-3-yl)-1H-indole-5-carboxamide]
IGF-1R
  inhibition at 30 µM: 80 to 100%
other
  melting point: 138 to 142 °C
KATO III
  inhibition at 10 µM: < 50%
DLD-1
  inhibition at 10 µM: < 50%
MDA-MB-231
  inhibition at 10 µM: < 50%
NCI-H1299
  inhibition at 10 µM: < 50%

## O=C(NCCCN1CCOCC1)c1ccc2[nH]c(-c3ccc[nH]c3=O)c(-c3ccc(Cl)c(Cl)c3)c2c1 [Compound 59, 3-(3,4-dichlorophenyl)-N-(3-morpholin-4-ylpropyl)-2-(2-oxo-1,2-dihydropyridin-3-yl)-1H-indole-5-carboxamide]
IGF-1R
  inhibition at 30 µM: 50 to 79%
other
  melting point: 135 to 138 °C
KATO III
  inhibition at 10 µM: 80 to 100%
DLD-1
  inhibition at 10 µM: 50 to 79%
MDA-MB-231
  inhibition at 10 µM: < 50%
NCI-H1299
  inhibition at 10 µM: 50 to 79%

## O=C(NCCCN1CCOCC1)c1ccc2[nH]c(-c3ccc[nH]c3=O)c(-c3cc4cccc5c4n3CCC5)c2c1 [Compound 8, 3-(5,6-dihydro-4H-pyrrolo[3,2,1-ij]quinolin-2-yl)-N-(3-morpholin-4-ylpropyl)-2-(2-oxo-1,2-dihydropyridin-3-yl)-1H-indole-5-carboxamide]
IGF-1R
  inhibition at 30 µM: 50 to 79%
other
  melting point: 181 to 189 °C
KATO III
  inhibition at 10 µM: 80 to 100%
DLD-1
  inhibition at 10 µM: 80 to 100%
MDA-MB-231
  inhibition at 10 µM: 80 to 100%
NCI-H1299
  inhibition at 10 µM: 80 to 100%

## O=C(c1ccc2[nH]c(-c3ccc[nH]c3=O)c(-c3ccc(-c4ccccc4)cc3)c2c1)N1CCN(c2ccccc2F)CC1 [Compound 36, 3-(3-biphenyl-4-yl-5-{[4-(2-fluorophenyl)piperazin-1-yl]carbonyl) -1H-indol-2-yl)pyridin-2(1H)-one]
IGF-1R
  inhibition at 30 µM: < 50%
other
  melting point: 137 to 144 °C
KATO III
  inhibition at 10 µM: < 50%
DLD-1
  inhibition at 10 µM: < 50%
MDA-MB-231
  inhibition at 10 µM: 50 to 79%
NCI-H1299
  inhibition at 10 µM: < 50%

## O=C(Nc1ccccc1F)c1ccc2[nH]c(-c3ccc[nH]c3=O)c(-c3ccccc3)c2c1 [Compound 15, N-(2-fluorophenyl)-2-(2-oxo-1,2-dihydropyridin-3-yl)-3-phenyl-1H-indole-5-carboxamide]
IGF-1R
  inhibition at 30 µM: 80 to 100%
other
  melting point: > 300 °C
KATO III
  inhibition at 10 µM: 80 to 100%
DLD-1
  inhibition at 10 µM: 80 to 100%
MDA-MB-231
  inhibition at 10 µM: 50 to 79%
NCI-H1299
  inhibition at 10 µM: 50 to 79%

## O=C(Nc1cccc(Cl)c1)c1ccc2[nH]c(-c3ccc[nH]c3=O)c(-c3ccccc3)c2c1 [Compound 22, N-(3-chlorophenyl)-2-(2-oxo-1,2-dihydropyridin-3-yl)-3-phenyl-1H-indole-5-carboxamide]
IGF-1R
  inhibition at 30 µM: 50 to 79%
other
  melting point: 244 to 250 °C
KATO III
  inhibition at 10 µM: 80 to 100%
DLD-1
  inhibition at 10 µM: 80 to 100%
MDA-MB-231
  inhibition at 10 µM: 50 to 79%
NCI-H1299
  inhibition at 10 µM: 50 to 79%

## CC(C)Oc1ccc(-c2c(-c3ccc[nH]c3=O)[nH]c3ccc(C(=O)NCCCN4CCOCC4)cc23)cc1 [Compound 66, 3-(4-isopropoxyphenyl)-N-(3-morpholin-4-ylpropyl)-2-(2-oxo-1,2-dihydropyridin-3-yl)-1H-indole-5-carboxamide]
IGF-1R
  inhibition at 30 µM: 80 to 100%
other
  melting point: 140 to 143 °C
KATO III
  inhibition at 10 µM: 80 to 100%
DLD-1
  inhibition at 10 µM: 50 to 79%
MDA-MB-231
  inhibition at 10 µM: 80 to 100%
NCI-H1299
  inhibition at 10 µM: 80 to 100%

## O=C(NCCOc1ccccc1)c1ccc2[nH]c(-c3ccc[nH]c3=O)c(-c3ccc(-c4ccccc4)cc3)c2c1 [Compound 51, 3-biphenyl-4-yl-2-(2-oxo-1,2-dihydropyridin-3-yl)-N-(2-phenoxyethyl)-1H-indole-5-carboxamide]
IGF-1R
  inhibition at 30 µM: < 50%
other
  melting point: 147 to 153 °C
KATO III
  inhibition at 10 µM: < 50%
DLD-1
  inhibition at 10 µM: < 50%
MDA-MB-231
  inhibition at 10 µM: 50 to 79%
NCI-H1299
  inhibition at 10 µM: < 50%

## Cc1ccc(-c2c(-c3ccc[nH]c3=O)[nH]c3ccc(C(=O)NCCCN4CCOCC4)cc23)cc1 [Compound 72, 3-(4-methylphenyl)-N-(3-morpholin-4-ylpropyl)-2-(2-oxo-1,2-dihydropyridin-3-yl)-1H-indole-5-carboxamide]
IGF-1R
  inhibition at 30 µM: 80 to 100%
other
  melting point: 152 to 154 °C
KATO III
  inhibition at 10 µM: 80 to 100%
DLD-1
  inhibition at 10 µM: 50 to 79%
MDA-MB-231
  inhibition at 10 µM: < 50%
NCI-H1299
  inhibition at 10 µM: 80 to 100%

## COc1ccc(NC(=O)c2ccc3[nH]c(-c4ccc[nH]c4=O)c(-c4ccccc4)c3c2)cc1 [Compound 29, N-(4-methoxyphenyl)-2-(2-oxo-1,2-dihydropyridin-3-yl)-3-phenyl-1H-indole-5-carboxamide]
IGF-1R
  inhibition at 30 µM: 80 to 100%
other
  melting point: 279 to 283 °C
KATO III
  inhibition at 10 µM: 80 to 100%
DLD-1
  inhibition at 10 µM: 50 to 79%
MDA-MB-231
  inhibition at 10 µM: < 50%
NCI-H1299
  inhibition at 10 µM: 80 to 100%

## O=C(NCc1ccccn1)c1ccc2[nH]c(-c3ccc[nH]c3=O)c(-c3ccc(-c4ccccc4)cc3)c2c1 [Compound 42, 3-biphenyl-4-yl-2-(2-oxo-1,2-dihydropyridin-3-yl)-N-(pyridin-2-ylmethyl)-1H-indole-5-carboxamide]
IGF-1R
  inhibition at 30 µM: < 50%
other
  melting point: 123 to 127 °C
KATO III
  inhibition at 10 µM: 80 to 100%
DLD-1
  inhibition at 10 µM: 80 to 100%
MDA-MB-231
  inhibition at 10 µM: 80 to 100%
NCI-H1299
  inhibition at 10 µM: 80 to 100%

## COC(=O)c1ccc2[nH]c(-c3ccc[nH]c3=O)c(-c3ccc(-c4ccccc4)cc3)c2c1 [Compound 9, methyl 3-biphenyl-4-yl-2-(2-oxo-1,2-dihydropyridin-3-yl)-1H-indole-5-carboxylate]
IGF-1R
  inhibition at 30 µM: < 50%
other
  melting point: > 300 °C
KATO III
  inhibition at 10 µM: < 50%
DLD-1
  inhibition at 10 µM: < 50%
MDA-MB-231
  inhibition at 10 µM: < 50%
NCI-H1299
  inhibition at 10 µM: < 50%

## CN(Cc1cccnc1)C(=O)c1ccc2[nH]c(-c3ccc[nH]c3=O)c(-c3ccc(-c4ccccc4)cc3)c2c1 [Compound 33, 3-biphenyl-4-yl-N-methyl-2-(2-oxo-1,2-dihydropyridin-3-yl)-N-(pyridin-3-ylmethyl)-1H-indole-5-carboxamide]
IGF-1R
  inhibition at 30 µM: < 50%
other
  melting point: 92 to 97 °C
KATO III
  inhibition at 10 µM: 80 to 100%
DLD-1
  inhibition at 10 µM: 80 to 100%
MDA-MB-231
  inhibition at 10 µM: 80 to 100%
NCI-H1299
  inhibition at 10 µM: 80 to 100%

## O=C(NCCCN1CCOCC1)c1ccc2[nH]c(-c3ccc[nH]c3=O)c(-c3ccc(Oc4ccccc4)cc3)c2c1 [Compound 57, N-(3-morpholin-4-ylpropyl)-2-(2-oxo-1,2-dihydropyridin-3-yl)-3-(4-phenoxyphenyl)-1H-indole-5-carboxamide]
IGF-1R
  inhibition at 30 µM: 80 to 100%
other
  melting point: 121 to 123 °C
KATO III
  inhibition at 10 µM: 80 to 100%
DLD-1
  inhibition at 10 µM: 80 to 100%
MDA-MB-231
  inhibition at 10 µM: 80 to 100%
NCI-H1299
  inhibition at 10 µM: 80 to 100%

## CCN(CC)CCCNC(=O)c1ccc2[nH]c(-c3ccc[nH]c3=O)c(-c3ccccc3)c2c1 [Compound 2, N-[3-(diethylamino)propyl]-2-(2-oxo-1,2-dihydropyridin-3-yl)-3-phenyl-1H-indole-5-carboxamide]
IGF-1R
  inhibition at 30 µM: 80 to 100%
other
  melting point: 190 to 198 °C
KATO III
  inhibition at 10 µM: 80 to 100%
DLD-1
  inhibition at 10 µM: 50 to 79%
MDA-MB-231
  inhibition at 10 µM: 50 to 79%
NCI-H1299
  inhibition at 10 µM: 50 to 79%

## O=C(c1ccc2[nH]c(-c3ccc[nH]c3=O)c(-c3ccc(-c4ccccc4)cc3)c2c1)N1CCN(c2cnccn2)CC1 [Compound 45, 3-{3-biphenyl-4-yl-5-[(4-pyrazin-2-ylpiperazin-1-yl)carbonyl]-1H-indol-2-yl}pyridin-2(1H)-one]
IGF-1R
  inhibition at 30 µM: 50 to 79%
other
  melting point: 289 to 296 °C
KATO III
  inhibition at 10 µM: 80 to 100%
DLD-1
  inhibition at 10 µM: 50 to 79%
MDA-MB-231
  inhibition at 10 µM: 80 to 100%
NCI-H1299
  inhibition at 10 µM: 80 to 100%
